In article PMC11955804, “Histidine-rich enantiomeric peptide coacervates enhance antigen sequestration and presentation to T cells” (Chemical Science, 2025):

How the values were obtained:
[1] = Optical microscopy of coacervate formation (LLPS); assay type: physicochemical; settings: optical microscopy, 1× PBS; across multiple synthesis batches
Description: NaCl) was used to study ionic strength effects. The absorbance was further converted to turbidity using methods previously described 1 and data was plotted as relative turbidity.
Optical microscopy and dynamic light scattering (DLS)
Droplets were visualized in 1×PBS using NCI Leica DMC4500 microscope in reflection mode with differential interference contrast. Images were captured with a DMC4500 camera under the control of Leica LAS X software (version 3.4.2). […]

DCs = assay: DQ-OVA delivery to lysosomes (fluorescence microscopy); assay type: cell-based, mouse; settings: DQ-OVA loaded coacervates, 2.5 μg/mL DQ-OVA, fluorescence microscopy
Experimental: page 13: Flow cytometry The transfected A549 cells were washed with FACS wash buffer (FWB; 1× PBS with 10% […] Cells were washed again with FWB and then resuspended in 100 µl of PBS with eBioscience™ Fixable Viability Dye eFluor™ 506 antibody. The staining was quenched with FWB following a 20 min incubation. The cells were centrifuged, washed 2× times with FWB, and resuspended in 100 µl FWB with CD55 (DAF) Antibody (anti-human; miltenyibiotec Cat#130-126-382). After 20 min, staining was quenched, cells washed twice and resuspended in 200 µl FWB for acquisition. Single-stained cells stained with eFluor™ 506, CD55 (DAF) Antibody, were used as compensation controls. Samples were acquired using an Agilent NovoCyte 3000 flow cytometer. Data were analyzed with FlowJo version 10. […] was quantified as the percentage CD55+ cells, considering untreated cells as the negative control and Lipofectamine treated ones as the positive control. Antigen delivery to lysosomes and inhibitor effects DC 2.4 cells were cultured in RPMI-1640 (Catalog number: 11875093) medium supplemented with 10% FBS, 100 U/mL penicillin, 100 μg/mL streptomycin, and 1 mM sodium pyruvate. Cells were plated in 8-well chamber slides (5000 cells in 200 μL of media) and incubated for 24 h prior to addition of DQ-OVA loaded coacervates for 2 h, 6 h, or 24 h (final DQ-OVA concentration was 2.5 μg/mL). Cells treated with PBS or soluble OVA served as controls. Cells were then washed and fixed using 4% Paraformaldehyde (PFA) for 15 min at RT and permeabilized with 0.1% Triton X-100 for 5 min prior to nuclear staining with Hoechst stain (Catalog number: 62249, Thermo Fischer Scientific; 10 μg/mL). Cells were imaged (60×) on Lionheart FX automated microscope (BioTek Instruments, Inc.) with controlled exposure S13 page 14: parameters across two channels: eGFP and DAPI.

[2] = test system: CD55 expression in A549 cells; assay: CRISPR/Cas9 RNP delivery, CD55 knockdown by flow cytometry; assay type: cell-based; settings: 3 days, enantiomeric coacervates
Experimental: complexed with lipofectamine 2000 (3.2 µL) served as controls. GFP expression was assessed qualitatively after 96 h using a Lionheart FX automated microscope (BioTek Instruments, Inc.).
We employed TrueCut Cas9 protein for the knockout of CD55 gene using CRISPR technology, aided with chiral (GHGXY)4 peptide coacervates. The transfection of the Cas9 RNPs (protein + gRNA) was done according to manufacturer’s protocol (Invitrogen). Briefly, A549 cells were cultured in complete DMEM media (supplemented with 10% FBS and 5% Pen Strep) in T-75 flask till full confluency. Cells were then plated at a concentration of 2×10^4 cells/mL in 24 well […]
plates in DMEM media for 24 h. […]
confluent. For positive control, we mixed the TrueCutTM Cas9 protein/sgRNA in Opti-MEM media (17.8 μL) at a concentration of 12.50 μg (75 pmol; Stock 0.5 mg/mL) and 2.4 μg (75 pmol; Stock 1 nmol) for protein and sgRNA respectively, containing 50 μL LipofectamineTM Cas 9 PlusTM reagent (Total Volume: 100 μL) in a RNAse -free microcentrifuge tube. […]
(DAF) Antibody (anti-human; miltenyibiotec Cat#130-126-382). […] Data were analyzed with FlowJo version 10. […] was quantified as the percentage CD55+ cells, considering untreated cells as the negative control and Lipofectamine treated ones as the positive control. […]

| Substance | coacervate formation [1] | lysosomal processing of DQ-OVA delivered by coacervates (DCs) | delivery of Cas9 RNP complex / decrease in CD55 expression on the cell surface [2] |
| --- | --- | --- | --- |
| (GHGLY)4 [GL 20] | Consistent coacervate formation | Green fluorescent puncta were detected | not highly effective |
| (GHGVY)4 [GV 20] | Consistent coacervate formation | Green fluorescent puncta were detected | successfully delivered the RNP complex |
